In the assay the target is EGFR (Homo sapiens, UniProt P00533). Nature of the assay: in vitro EGFR enzyme inhibition, Human EGFR ELISA kit. Format: biochemical.

Structures are written as SMILES.

Results on one compound are retold here after paper PMC9500845, “New Anticancer Theobromine Derivative Targeting EGFR^WT and EGFR^T790M: Design, Semi-Synthesis, In Silico, and In Vitro Anticancer Studies” (Molecules, 2022).

Sequence of EGFR (P00533 25-1210): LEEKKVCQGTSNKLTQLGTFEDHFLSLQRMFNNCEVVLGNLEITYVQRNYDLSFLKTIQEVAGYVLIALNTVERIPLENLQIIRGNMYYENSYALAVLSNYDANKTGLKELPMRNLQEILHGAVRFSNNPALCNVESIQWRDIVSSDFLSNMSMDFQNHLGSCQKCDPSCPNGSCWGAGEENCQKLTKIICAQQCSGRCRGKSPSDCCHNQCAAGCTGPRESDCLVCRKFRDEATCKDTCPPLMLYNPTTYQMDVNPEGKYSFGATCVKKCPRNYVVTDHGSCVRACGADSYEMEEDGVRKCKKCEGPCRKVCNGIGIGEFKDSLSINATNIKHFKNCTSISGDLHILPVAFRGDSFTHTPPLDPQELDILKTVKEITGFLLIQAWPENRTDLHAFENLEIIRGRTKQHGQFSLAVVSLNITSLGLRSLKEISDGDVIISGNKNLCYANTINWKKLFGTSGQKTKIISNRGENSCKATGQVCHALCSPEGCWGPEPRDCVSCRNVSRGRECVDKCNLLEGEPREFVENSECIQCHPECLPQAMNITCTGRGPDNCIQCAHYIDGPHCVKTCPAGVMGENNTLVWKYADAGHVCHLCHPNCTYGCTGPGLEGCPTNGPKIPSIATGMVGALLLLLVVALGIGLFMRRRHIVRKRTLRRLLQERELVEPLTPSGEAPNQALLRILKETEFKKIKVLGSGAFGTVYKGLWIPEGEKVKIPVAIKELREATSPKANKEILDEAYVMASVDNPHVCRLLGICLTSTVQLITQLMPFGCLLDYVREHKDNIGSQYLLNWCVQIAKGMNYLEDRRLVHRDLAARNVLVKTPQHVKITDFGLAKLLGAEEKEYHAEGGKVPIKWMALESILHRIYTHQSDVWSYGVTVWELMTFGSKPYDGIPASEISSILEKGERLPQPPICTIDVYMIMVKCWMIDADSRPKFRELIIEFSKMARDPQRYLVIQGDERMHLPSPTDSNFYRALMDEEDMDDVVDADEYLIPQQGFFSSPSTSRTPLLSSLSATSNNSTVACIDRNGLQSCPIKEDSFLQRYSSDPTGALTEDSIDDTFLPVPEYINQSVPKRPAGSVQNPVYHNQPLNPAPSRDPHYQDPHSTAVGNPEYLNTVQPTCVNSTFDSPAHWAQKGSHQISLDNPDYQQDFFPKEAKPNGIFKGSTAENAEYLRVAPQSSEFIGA

One may read the IC50 as the point on the concentration scale where inhibition reaches its midpoint. Take `Cn1cnc2c1c(=O)n(CC(=O)NCc1ccccc1)c(=O)n2C` [XI, N-Benzyl-2-(3,7-dimethyl-2,6-dioxo-2,3,6,7-tetrahydro-1H-purin-1-yl)acetamide]: 0.0172 µM corresponded to half-maximal inhibition (IC50).
